Test results: paper PMC12484987 (Scientific Reports, 2025)

Tested on: HepG2 (Hepatocarcinoma)
Experiment: not given
Conditions: HepG2, at maximum tested concentration of 50 µg/mL

| SMILES | Percentage cytotoxicity |
| --- | --- |
| Cc1ccnc2c1NC(=O)c1cccnc1N2C1CC1 [NVP, nevirapine, reference compound] | 15% |

Tested on: MOLT-3 (Acute lymphoblastic leukemia)
Experiment: not given
Conditions: MOLT-3, at maximum tested concentration of 50 µg/mL

| SMILES | Percentage cytotoxicity |
| --- | --- |
| Cc1ccnc2c1NC(=O)c1cccnc1N2C1CC1 [NVP, nevirapine, reference compound] | 29% |

Tested on: HuCCA-1 (Cholangiocarcinoma)
Experiment: not given
Conditions: HuCCA-1, at maximum tested concentration of 50 µg/mL

| SMILES | Percentage cytotoxicity |
| --- | --- |
| Cc1ccnc2c1NC(=O)c1cccnc1N2C1CC1 [NVP, nevirapine, reference compound] | 11% |

Tested on: A549 (Lung carcinoma)
Experiment: not given
Conditions: A549, at maximum tested concentration of 50 µg/mL

| SMILES | Percentage cytotoxicity |
| --- | --- |
| Cc1ccnc2c1NC(=O)c1cccnc1N2C1CC1 [NVP, nevirapine, reference compound] | 18% |

Tested on: MRC-5 (normal embryonic lung cell)
Experiment: not given
Conditions: MRC-5, at maximum tested concentration of 50 µg/mL

| SMILES | Percentage cytotoxicity |
| --- | --- |
| Cc1ccnc2c1NC(=O)c1cccnc1N2C1CC1 [NVP, nevirapine, reference compound] | 1% |

Tested on: MDA-MB-231 (Hormone-independent breast cancer)
Experiment: not given
Conditions: MDA-MB-231, at maximum tested concentration of 50 µg/mL

| SMILES | Percentage cytotoxicity |
| --- | --- |
| Cc1ccnc2c1NC(=O)c1cccnc1N2C1CC1 [NVP, nevirapine, reference compound] | 9% |

Tested on: S102 (Thai liver cancer)
Experiment: not given
Conditions: S102, at maximum tested concentration of 50 µg/mL

| SMILES | Percentage cytotoxicity |
| --- | --- |
| Cc1ccnc2c1NC(=O)c1cccnc1N2C1CC1 [NVP, nevirapine, reference compound] | 3% |

Tested on: HeLa (Cervical carcinoma)
Experiment: not given
Conditions: HeLa, at maximum tested concentration of 50 µg/mL

| SMILES | Percentage cytotoxicity |
| --- | --- |
| Cc1ccnc2c1NC(=O)c1cccnc1N2C1CC1 [NVP, nevirapine, reference compound] | 34% |

Tested on: T47-D (Hormone-dependent breast cancer)
Experiment: not given
Conditions: T47-D, at maximum tested concentration of 50 µg/mL

| SMILES | Percentage cytotoxicity |
| --- | --- |
| Cc1ccnc2c1NC(=O)c1cccnc1N2C1CC1 [NVP, nevirapine, reference compound] | 14% |

Tested on: H69AR (Lung cancer, multidrug resistance)
Experiment: not given
Conditions: H69AR, at maximum tested concentration of 50 µg/mL

| SMILES | Percentage cytotoxicity |
| --- | --- |
| Cc1ccnc2c1NC(=O)c1cccnc1N2C1CC1 [NVP, nevirapine, reference compound] | 8% |

Tested on: HL-60 (promyeloblast)
Experiment: not given
Conditions: HL-60, at maximum tested concentration of 50 µg/mL

| SMILES | Percentage cytotoxicity |
| --- | --- |
| Cc1ccnc2c1NC(=O)c1cccnc1N2C1CC1 [NVP, nevirapine, reference compound] | 3% |

Tested on: HepG2 (Hepatocarcinoma)
Experiment: cells
Conditions: Homo sapiens, HepG2, 48 h, read-out: IC50 cytotoxic activity

| SMILES | IC50 |
| --- | --- |
| Cc1ccnc2c1NC(=O)c1cccnc1N2C1CC1 [NVP, nevirapine, reference compound] | > 188 µM |

Tested on: MOLT-3 (Acute lymphoblastic leukemia)
Experiment: cells
Conditions: Homo sapiens, MOLT-3, 48 h, read-out: IC50 cytotoxic activity

| SMILES | IC50 |
| --- | --- |
| Cc1ccnc2c1NC(=O)c1cccnc1N2C1CC1 [NVP, nevirapine, reference compound] | > 188 µM |

Tested on: HuCCA-1 (Cholangiocarcinoma)
Experiment: cells
Conditions: Homo sapiens, HuCC-A1, 48 h, read-out: IC50 cytotoxic activity

| SMILES | IC50 |
| --- | --- |
| Cc1ccnc2c1NC(=O)c1cccnc1N2C1CC1 [NVP, nevirapine, reference compound] | > 188 µM |

Tested on: A549 (Lung carcinoma)
Experiment: cells
Conditions: Homo sapiens, A549, 48 h, read-out: IC50 cytotoxic activity

| SMILES | IC50 |
| --- | --- |
| Cc1ccnc2c1NC(=O)c1cccnc1N2C1CC1 [NVP, nevirapine, reference compound] | > 188 µM |

Tested on: MDA-MB-231 (Hormone-independent breast cancer)
Experiment: cells
Conditions: Homo sapiens, MDA-MB-231, 48 h, read-out: IC50 cytotoxic activity

| SMILES | IC50 |
| --- | --- |
| Cc1ccnc2c1NC(=O)c1cccnc1N2C1CC1 [NVP, nevirapine, reference compound] | > 188 µM |

Tested on: S102 (Thai liver cancer)
Experiment: cells
Conditions: Homo sapiens, 48 h, read-out: IC50 cytotoxic activity

| SMILES | IC50 |
| --- | --- |
| Cc1ccnc2c1NC(=O)c1cccnc1N2C1CC1 [NVP, nevirapine, reference compound] | > 188 µM |

Tested on: HeLa (Cervical carcinoma)
Experiment: cells
Conditions: Homo sapiens, 48 h, read-out: IC50 cytotoxic activity

| SMILES | IC50 |
| --- | --- |
| Cc1ccnc2c1NC(=O)c1cccnc1N2C1CC1 [NVP, nevirapine, reference compound] | > 188 µM |

Tested on: T47-D (Hormone-dependent breast cancer)
Experiment: cells
Conditions: Homo sapiens, T47D, 48 h, read-out: IC50 cytotoxic activity

| SMILES | IC50 |
| --- | --- |
| Cc1ccnc2c1NC(=O)c1cccnc1N2C1CC1 [NVP, nevirapine, reference compound] | > 188 µM |

Tested on: H69AR (Lung cancer, multidrug resistance)
Experiment: cells
Conditions: Homo sapiens, 48 h, read-out: IC50 cytotoxic activity

| SMILES | IC50 |
| --- | --- |
| Cc1ccnc2c1NC(=O)c1cccnc1N2C1CC1 [NVP, nevirapine, reference compound] | > 188 µM |

Tested on: HL-60 (promyeloblast)
Experiment: cells
Conditions: Homo sapiens, HL-60, 48 h, read-out: IC50 cytotoxic activity

| SMILES | IC50 |
| --- | --- |
| Cc1ccnc2c1NC(=O)c1cccnc1N2C1CC1 [NVP, nevirapine, reference compound] | > 188 µM |

Tested on: not listed separately
Experiment: in vitro
Conditions: human, MRC-5 cells (normal embryonic lung cells)

| SMILES | IC50 at 48 h |
| --- | --- |
| Cc1ccnc2c1NC(=O)c1cccnc1N2C1CC1 [NVP, nevirapine, reference compound] | > 188 µM |
